Our source for the IC50 values is ChEMBL document CHEMBL1137182, “Ligand conformation has a definitive effect on 5-HT1A and serotonin reuptake affinity” (Bioorg Med Chem Lett, 2004).

For test [1], the target named is Sodium-dependent serotonin transporter (Homo sapiens, UniProt P31645). As to the kind of experiment: Inhibitory activity against human- serotonin reuptake transmitter using [3H]-citalopram as a radioligand.
A short description of test [2]: Inhibitory activity against 5-hydroxytryptamine receptor 1A using (+/-)-[3H]-8-hydroxydipropylaminotetralin. Also on record: species or system Homo sapiens.

Chain of Sodium-dependent serotonin transporter (P31645 whole entry): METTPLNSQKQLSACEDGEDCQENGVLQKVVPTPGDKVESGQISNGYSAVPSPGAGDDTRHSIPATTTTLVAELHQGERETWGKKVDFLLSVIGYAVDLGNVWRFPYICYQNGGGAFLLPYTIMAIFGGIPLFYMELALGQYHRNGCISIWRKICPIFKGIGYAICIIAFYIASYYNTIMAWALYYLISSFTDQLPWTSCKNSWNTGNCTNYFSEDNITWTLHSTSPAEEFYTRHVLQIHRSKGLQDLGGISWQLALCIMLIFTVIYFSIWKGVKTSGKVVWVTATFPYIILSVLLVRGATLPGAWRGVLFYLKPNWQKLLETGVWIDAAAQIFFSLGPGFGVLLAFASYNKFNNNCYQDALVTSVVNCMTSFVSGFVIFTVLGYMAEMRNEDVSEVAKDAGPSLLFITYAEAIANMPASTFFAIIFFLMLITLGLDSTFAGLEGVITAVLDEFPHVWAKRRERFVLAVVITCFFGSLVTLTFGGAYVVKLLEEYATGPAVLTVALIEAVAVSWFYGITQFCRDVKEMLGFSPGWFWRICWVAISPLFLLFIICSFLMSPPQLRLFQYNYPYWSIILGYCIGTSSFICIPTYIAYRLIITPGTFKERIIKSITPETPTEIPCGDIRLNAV

In the case of `O=C1O[C@]2(CC[C@@H](N3CCC(Cc4cc(F)ccc4Br)CC3)CC2)c2ccc3c(c21)OCCO3`, the figures for the IC50 in test [1] and in test [2] were 77 nM and 11 nM, respectively.

Consider `COc1ccccc1CC1CCN([C@H]2CC[C@]3(CC2)OC(=O)c2c4c(ccc23)OCCO4)CC1`, for which the IC50 (usually the point on the concentration scale where inhibition reaches its midpoint) in test [1] is 59 nM; in test [2], 4.3 nM.

Turning to `COc1ccc(Br)c(CC2CCN([C@H]3CC[C@]4(CC3)OC(=O)c3c5c(ccc34)OCO5)CC2)c1`, the IC50 in test [1] was found to be 91 nM; in test [2], 2.4 nM. On the same counts, the results for `COc1ccc(F)c(CC2CCN([C@H]3CC[C@]4(CC3)OC(=O)c3c5c(ccc34)OCCO5)CC2)c1` are 430 nM and 11 nM. For `O=C1O[C@]2(CC[C@@H](N3CCC(Cc4cc(F)ccc4F)CC3)CC2)c2ccc3c(c21)OCCO3`, in that order: 110 nM and 14 nM.

On to `O=C1O[C@]2(CC[C@@H](N3CCC(Cc4ccccc4Br)CC3)CC2)c2ccc3c(c21)OCCO3`, for which the IC50 is 73 nM in test [1] and 9.8 nM in test [2]. Consider `COc1ccc(F)c(CC2CCN([C@H]3CC[C@]4(CC3)OC(=O)c3c5c(ccc34)OCO5)CC2)c1`, for which the IC50 in test [1] was determined as 400 nM.

As for `O=C1O[C@]2(CC[C@@H](N3CCC(Cc4cc(F)ccc4F)CC3)CC2)c2ccc3c(c21)OCO3`, the IC50 amounted to 250 nM in test [1] and 22 nM in test [2].

Regarding `O=C1O[C@]2(CC[C@@H](N3CCC(Cc4cc(F)ccc4Br)CC3)CC2)c2ccc3c(c21)OCO3`, the values for the IC50 in test [1] and in test [2] were 82 nM and 14 nM, respectively. As for `O=C1O[C@]2(CC[C@@H](N3CCC(Cc4ccccc4C(F)(F)F)CC3)CC2)c2ccc3c(c21)OCO3`, the IC50 in test [1] worked out at 180 nM; in test [2] it was 67 nM. On the same counts, the results for `O=C1O[C@]2(CC[C@@H](N3CCN(Cc4ccccc4I)CC3)CC2)c2ccc3c(c21)OCCO3` are 54 nM and 9.6 nM.

Consider `O=C1O[C@]2(CC[C@@H](N3CCC(Cc4ccccc4Br)CC3)CC2)c2ccc3c(c21)OCO3`, for which the IC50 worked out at 45 nM in test [1] and 9.6 nM in test [2].

As for `O=C1O[C@]2(CC[C@@H](N3CCC(Cc4ccccc4C(F)(F)F)CC3)CC2)c2ccc3c(c21)OCCO3`, the half-maximal inhibitory concentration (IC50) in test [1] turned out to be 510 nM; in test [2] it was 43 nM. For `O=C1O[C@]2(CC[C@@H](N3CCN(Cc4ccccc4I)CC3)CC2)c2ccc3c(c21)OCO3`, in that order: 48 nM and 9.6 nM. As for `Oc1nc2cc3c(cc2c2c1[C@@H](N1CCC(Cc4cc(F)ccc4F)CC1)CCC2)OCO3` (stereo in doubt; 4o), the IC50 in test [1] was found to be 14 nM; in test [2] it was 450 nM. As to `O=C1O[C@]2(CC[C@@H](N3CCC(Cc4ccccc4F)CC3)CC2)c2ccc3c(c21)OCCO3`, the results for the IC50 in test [1] and in test [2] were 480 nM and 12 nM, respectively.

In the case of `O=C1O[C@]2(CC[C@@H](N3CCC(Cc4ccccc4F)CC3)CC2)c2ccc3c(c21)OCO3`, the results for the IC50 in test [1] and in test [2] were 410 nM and 14 nM, respectively. On the same counts, the results for `COc1ccccc1CC1CCN([C@H]2CC[C@]3(CC2)OC(=O)c2c4c(ccc23)OCO4)CC1` are 150 nM and 6.7 nM. `O=C1O[C@]2(CC[C@@H](N3CCC(Cc4ccccc4Cl)CC3)CC2)c2ccc3c(c21)OCO3`: the values for the IC50 in test [1] and in test [2] were 140 nM and 10 nM, respectively. Turning to `Oc1nc2cc3c(cc2c2c1[C@@H](N1CCC(Cc4cc(F)ccc4F)CC1)CCC2)OCO3` (stereo in doubt; 3o), the IC50 in test [1] is 5 nM; in test [2] it was 440 nM. On the same counts, the results for `O=C1O[C@]2(CC[C@@H](N3CCC(Cc4ccccc4Cl)CC3)CC2)c2ccc3c(c21)OCCO3` are 100 nM and 19 nM. Turning to `Oc1nc2cc3c(cc2c2c1[C@@H](N1CCN(Cc4ccccc4I)CC1)CCC2)OCO3`, the IC50 in test [1] is 23 nM; in test [2], greater than 1000 nM. `O=C1O[C@]2(CC[C@@H](N3CCC(Cc4cc(Cl)ccc4Cl)CC3)CC2)c2ccc3c(c21)OCO3`: the IC50 in test [1] turned out to be 92 nM; in test [2], 2.3 nM.
